According to US7462595B2, “Methods for treating cancer-related fatigue” (priority 2004, dated 2008):

Columns and labels:
[1] = test system: patients with severe CRF (breast cancer or prostate cancer); experiment: double-blind, placebo-controlled crossover study of intravenous TRH infusions in idiopathic cancer-related fatigue; format: in vivo, human
Description: Patient Selection. Patients with a diagnosis of cancer, in this study, breast cancer; or prostate cancer, are screened for CRF using a brief fatigue inventory (BFI) in an oncology clinic setting. The BFI is a simple 9-item self-administered scale and requires about 5-10 minutes to complete. Patients experiencing a severe level of fatigue (BFI≧7) are identified based on this screening. These patients then undergo additional screening with a comprehensive interview and laboratory assessments (hemoglobin, hematocrit, thyroid stimulating hormone concentration, and electrolytes) to identify and exclude patients with medically reversible or other treatable causes of fatigue (viz. anemia, hypothyroidism, electrolyte abnormalities, significant pain dominating the CRF presentation). […]
The patients selected undergo a comprehensive assessment to investigate different aspects of fatigue. […] Patients are evaluated for two major psychiatric disorders frequently co-occurring with CRF, depressive disorders and anxiety disorders. […]
The study utilizes a double-blind, placebo-controlled crossover design. […], patients are evaluated in the General Clinical Research Unit (GCRC) of the John Dempsey Hospital and receive intravenous infusions of TRH (0.5 mg for the first active drug trial, 1.5 mg for the second active drug trial) or saline in random order following an ABBA crossover design. […]

[2] = test system: patients with spinocerebellar degeneration (SCD); settings: cited from earlier work
[3] = test system: patients with severe CRF (breast cancer or prostate cancer); experiment: randomized, double-blind, placebo-controlled study of taltirelin in idiopathic cancer-related fatigue; format: in vivo, human; settings: 10 mg vs placebo; after 6 weeks of treatment
Description: Patient Selection. Patients with a diagnosis of cancer, in this study, breast cancer, or prostate cancer, are screened for CRF using a brief fatigue inventory (BFI) in an oncology clinic setting. The BFI is a simple 9-item self-administered scale and requires about 5-10 minutes to complete. Patients experiencing a severe level of fatigue (BFI≧7) are identified based on this screening. […]
Both groups undergo a comprehensive assessment to investigate different aspects of fatigue. […] Patients are also evaluated for two major psychiatric disorders frequently co-occurring with CRF, depressive disorders and anxiety disorders. […]
In the intervention phase of the study, patients receive study medication or placebo based on their group assignments. […] Patients are assessed for their overall status using the clinical global impressions severity of illness scale (CGI-S) at randomization, at week 4 and at the end of the intervention phase. They are also assessed for any global improvement using clinical global impressions improvement scale (CGI-I) at week 4 and at the end of intervention phase. […]

For `NC(=O)[C@@H]1CCCN1C(=O)[C@H](Cc1cnc[nH]1)NC(=O)[C@@H]1CCC(=O)N1` [TRH, L-pyroglutamyl-L-histidyl-L-prolineamide], the “improving cancer related fatigue, change from baseline in mean fatigue scores assessed using the BFI and MFI” value ([1]; TRH 0.5 mg or 1.5 mg infusion vs placebo (saline), each comparison point during 4 week treatment intervention phase) was “superior to placebo” and the “improving quality of life, change from baseline in mean quality of life scores assessed using SF-36” value ([1]; TRH 0.5 mg or 1.5 mg vs placebo, of treatment) was “superior to placebo”.

In the case of `CN1C(=O)C[C@@H](C(=O)N[C@@H](Cc2c[nH]cn2)C(=O)N2CCC[C@H]2C(N)=O)NC1=O` [taltirelin], the “safety record and side effect profile” value ([2]; Phase III clinical trials and post-marketing surveillance in Japan) is given as “excellent safety record” and the “efficacy in the treatment of spinocerebellar degeneration (SCD)” value ([2]; SCD patients) is given as “some efficacy”.

For taltirelin, the “improving cancer related fatigue, change from baseline in mean fatigue scores assessed using BFI and MFI” value [3] was “superior to placebo” and the “improving quality of life, change from baseline in mean quality of life scores assessed using SF-36” value [3] was “superior to placebo”.
